Measured values from PubChem BioAssay (NCI).
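Five concentrations, 48 hours, 96-well plates. GI50: concentration for 50% inhibition of growth. Definition used: TGI = concentration required for complete inhibition of growth.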 Where a SMILES comes first, the peptide text is derived from it. The star is where a group is joined. Bn = c1ccc(C*)cc1

Experiments:
Test in all cases: inhibition of tumour cell growth, NCI panel, 48 h
SNB-75 CNS = test system: SNB-75 CNS
HCC-2998 colon = test system: HCC-2998 colon
IGROV1 ovarian = test system: IGROV1 ovarian
UO-31 renal = test system: UO-31 renal
HOP-62 NSCLC = test system: HOP-62 NSCLC
K-562 leukemia = test system: K-562 leukemia
SR leukemia = test system: SR leukemia
A549 NSCLC = test system: A549 NSCLC
BT-549 breast = test system: BT-549 breast
HL-60(TB) leukemia = test system: HL-60(TB) leukemia

SMILES	TGI (SNB-75 CNS) [µM]	TGI (HCC-2998 colon) [µM]	TGI (IGROV1 ovarian) [µM]	TGI (UO-31 renal) [µM]	TGI (HOP-62 NSCLC) [µM]	TGI (K-562 leukemia) [µM]	TGI (SR leukemia) [µM]	TGI (A549 NSCLC) [µM]	TGI (BT-549 breast) [µM]	TGI (HL-60(TB) leukemia) [µM]	GI50 (SNB-75 CNS) [µM]	GI50 (HCC-2998 colon) [µM]	GI50 (IGROV1 ovarian) [µM]	GI50 (UO-31 renal) [µM]	GI50 (HOP-62 NSCLC) [µM]	GI50 (K-562 leukemia) [µM]	GI50 (SR leukemia) [µM]	GI50 (A549 NSCLC) [µM]	GI50 (BT-549 breast) [µM]	GI50 (HL-60(TB) leukemia) [µM]
COC(=O)C(CC(C)C)NC(=O)C(N)Cc1ccc(OCc2ccccc2)cc1 (configuration not stated) (H-Tyr(Bn)-Leu-OMe; configuration not given here)	> 10	> 10	> 10	> 10	> 10	> 10	> 10	> 10	> 10	5.61	–	–	–	–	–	–	–	–	–	–
O=C(O)c1c2c(cc3c1CC1(Cc4ccccc4C1=O)C3)CCC2 (configuration not stated)	> 94.6	13.4	> 100	> 100	> 100	33.6	9.56	> 100	> 93.4	14.9	–	–	–	–	–	–	–	–	–	–
N#CCCN(CCC#N)c1ccc(/C=C2\SC(=S)NC2=O)cc1Br	> 100	> 100	> 100	> 100	40.4	> 100	> 100	> 100	> 100	> 100	–	–	–	–	–	–	–	–	–	–
Cc1cc(/N=C/c2ccc(C#N)cc2)n(-c2ccccc2)n1	> 100	> 100	> 100	> 100	> 100	> 100	> 100	> 100	> 100	76.6	–	–	–	–	–	–	–	–	–	–
Cc1cn2c(C)csc2c1P(=O)(OC(C)C)OC(C)C	> 100	> 100	> 100	> 100	> 100	> 100	> 100	> 100	> 100	> 100	–	–	–	–	–	–	–	–	–	–
N#CC(=N)c1ncn(-c2ccccc2N)c1N	> 100	> 100	> 100	> 100	> 100	> 100	> 100	> 100	> 100	> 100	–	–	–	–	–	–	–	–	–	–
O=C1CC(Sc2nc3ccc(I)cc3c(=O)n2Cc2ccccc2)C(=O)NN1 (configuration not stated)	24.5	31.8	25.2	1.97	35.1	50.5	24	89.4	29.3	38.4	–	–	–	–	–	–	–	–	–	–
O=C(CNCc1ccccc1)Oc1c(Cl)c(Cl)c(Cl)c(Cl)c1Cl	> 100	53.9	> 100	52.1	> 100	> 100	47.9	69.1	44.2	52.4	–	–	–	–	–	–	–	–	–	–
NS(=O)(=O)c1ccc(NC(NC(=O)C(C(F)(F)F)C(F)(F)F)(C(F)(F)F)C(F)(F)F)cc1	> 100	> 100	> 100	> 100	> 100	> 100	> 100	> 100	> 100	> 100	–	–	–	–	–	–	–	–	–	–
CC(C)CCn1nc(N)c2nc3ccccc3nc21	> 100	> 100	> 100	> 100	> 100	> 100	> 100	> 100	> 100	> 100	–	–	–	–	–	–	–	–	–	–
C=C1C(=O)OC2/C=C(/C)C3(O)OC(C)(CC(OC(=O)C(C)C)C12)CC3OC(C)=O (configuration not stated)	> 100	16.5	36.6	22.2	> 100	> 100	> 31.5	> 100	22.3	> 19.7	–	–	–	–	–	–	–	–	–	–
Cc1cc2nc(-c3cc(C(C)(C)C)c(O)c(C(C)(C)C)c3)[nH]c2cc1C	> 100	> 100	> 100	> 27.4	> 100	> 43.1	> 31.7	26.3	> 100	> 100	–	–	–	–	–	–	–	–	–	–
COC(=O)c1cc2c(cc1CC(Cc1ccc3c(c1)CCC3)C(=O)OC)CCC2 (configuration not stated)	> 100	> 100	> 100	> 100	> 100	> 100	57.4	> 100	> 100	31.1	–	–	–	–	–	–	–	–	–	–
COc1c(O)c(O)cc2c1-c1ccc(OC)c(=O)cc1C(NC(C)=O)CC2 (configuration not stated)	63.9	74.8	> 100	> 100	87.1	19.2	> 100	> 100	14.9	18	–	–	–	–	–	–	–	–	–	–
COC(=O)c1cc(C)ccc1CC(Cc1ccc(C)cc1)C(=O)OC (configuration not stated)	> 90.7	> 100	> 100	> 100	> 100	> 38.7	> 100	> 100	> 100	> 29.1	–	–	–	–	–	–	–	–	–	–
COC(=O)C1(Cc2ccc3c(c2)CCC3)Cc2cc3c(cc2C1)CCC3	> 100	57.5	> 100	> 100	> 100	> 100	> 100	> 100	> 100	77.8	–	–	–	–	–	–	–	–	–	–
Cc1c(C#N)c(N)n(C2OCC(O)C(O)C2O)c(=S)c1C#N (configuration not stated)	> 100	> 100	> 100	> 100	> 100	> 100	> 100	> 100	> 100	> 100	–	–	–	–	–	–	–	–	–	–
COc1ccc(N=Nc2c3c(c(O)c4ccccc24)CCC(C)(C)O3)cc1	52.9	24.5	35.5	35.2	52.9	> 100	39.1	39	34.6	50.1	–	–	–	–	–	–	–	–	–	–
COc1ccc(-c2csc(NC(=O)CSc3nc(C)c(-c4ccccc4)n3Nc3ccccc3)n2)cc1	> 100	> 100	> 100	> 100	> 100	> 100	> 100	> 100	> 100	> 100	12.8	> 100	4.25	1.89	47.8	5.29	5.47	4.87	8.93	6.29
Cc1c2ccncc2c(C)c2c1[nH]c1ccccc12	2.64	4.87	3.76	4.62	3.13	5.09	> 100	2.96	3.34	6.78	–	–	–	–	–	–	0.819	–	1.56	–
O=C(O)c1ccc2c(c1)CC1(C2)Cc2cc3c(cc2C1=O)CCC3 (configuration not stated)	> 100	> 100	> 100	> 100	> 100	> 100	> 100	> 100	> 100	> 100	–	–	–	–	–	–	–	–	–	–
Cc1cn([C@H]2C[C@](C)(CO)N(C)O2)c(=O)[nH]c1=O	> 100	> 100	> 100	> 100	> 100	> 100	> 100	> 100	> 100	> 100	–	–	–	–	–	–	–	–	–	–
COc1ccc(N=C2C(=S)N(c3ccc(OC)cc3)/C(=N/S(=O)(=O)c3ccccc3)N2c2ccccc2)cc1	35.1	> 57.9	28.1	13.4	> 57	> 100	> 66.4	> 73.1	11.2	> 100	–	–	–	–	–	–	–	–	–	–
O=C(O)CC(NC(=O)/C(=C/c1ccccc1O)NC(=O)c1ccccc1)C(=O)O (configuration not stated)	> 100	> 100	> 100	> 100	> 100	> 100	> 100	> 100	> 100	76.5	–	–	–	–	–	–	–	–	–	–
